Test results taken from PMC5943271, “Biosynthetic pathway for furanosteroid demethoxyviridin and identification of an unusual pregnane side-chain cleavage” (Nature Communications, 2018).
Where two headings read alike, the source gives them in different places.

Key:
[1] = tested on: MCF-7 cells; test: Cytotoxicity assay (CCK-8) against breast cancer cell line MCF-7; format: cell-based, human; details: MCF-7, 40 μM, 48 h
[2] = set-up: method as in PMID 19523825; details: cited from earlier work
[3] = target: PI3K gamma kinase (Homo sapiens, UniProt P48736); test: In vitro PI3K gamma kinase assay (PI3-Kinase (human) HTRF Assay kit); format: biochemical; details: for IC50: PI3K gamma, 10 μM PIP2, 10 μM ATP, room temperature 1 h, HTRF, two replicates, read-out: IC50 value, PI3K inhibitory activity
[4] = Cytotoxicity assay (CCK-8) against breast cancer cell line MCF-7; format: cell-based, human; details: human, MCF-7 breast cancer cells (ATCC HTB-22), MCF-7, 48 h

Sequence of PI3K gamma kinase (P48736 whole entry): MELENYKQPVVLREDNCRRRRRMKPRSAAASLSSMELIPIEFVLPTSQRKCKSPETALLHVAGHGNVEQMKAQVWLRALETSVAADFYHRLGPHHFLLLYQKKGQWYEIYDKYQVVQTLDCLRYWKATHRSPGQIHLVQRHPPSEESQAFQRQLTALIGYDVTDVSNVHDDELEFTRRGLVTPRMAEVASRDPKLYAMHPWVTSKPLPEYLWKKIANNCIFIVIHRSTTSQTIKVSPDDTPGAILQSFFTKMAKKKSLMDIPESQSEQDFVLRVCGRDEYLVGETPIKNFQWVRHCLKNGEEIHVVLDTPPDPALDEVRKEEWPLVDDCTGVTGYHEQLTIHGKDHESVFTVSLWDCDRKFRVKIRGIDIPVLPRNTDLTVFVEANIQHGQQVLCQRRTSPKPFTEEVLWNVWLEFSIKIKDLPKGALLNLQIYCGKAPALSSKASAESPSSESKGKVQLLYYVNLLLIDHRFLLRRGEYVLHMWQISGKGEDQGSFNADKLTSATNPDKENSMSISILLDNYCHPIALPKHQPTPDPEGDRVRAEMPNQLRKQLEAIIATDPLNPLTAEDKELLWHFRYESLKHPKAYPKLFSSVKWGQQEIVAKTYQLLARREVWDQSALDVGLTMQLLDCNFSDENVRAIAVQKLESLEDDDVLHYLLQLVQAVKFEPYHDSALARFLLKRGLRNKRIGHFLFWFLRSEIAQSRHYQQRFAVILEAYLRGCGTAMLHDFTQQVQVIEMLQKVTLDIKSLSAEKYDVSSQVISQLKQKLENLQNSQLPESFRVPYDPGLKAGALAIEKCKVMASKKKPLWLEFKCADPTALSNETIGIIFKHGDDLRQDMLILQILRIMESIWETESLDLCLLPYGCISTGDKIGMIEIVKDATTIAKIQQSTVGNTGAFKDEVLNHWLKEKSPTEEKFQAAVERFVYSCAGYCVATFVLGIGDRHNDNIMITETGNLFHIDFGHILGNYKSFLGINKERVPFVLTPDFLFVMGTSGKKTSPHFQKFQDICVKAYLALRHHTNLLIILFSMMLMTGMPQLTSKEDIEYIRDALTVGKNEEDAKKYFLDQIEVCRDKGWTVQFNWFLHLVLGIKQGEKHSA

melting point	SMILES	IC50 [3]	also measured
218.2 to 221.7 °C	CC(=O)[C@H]1CC[C@H]2C3=C(CC[C@]12C)[C@@]1(C)CC[C@H](O)C2=C1[C@@](O)(OC2)C3=O	–	–
236.4 to 238.7 °C	C[C@]12CC[C@H](O)c3coc(c31)C(=O)C1=C2C=C[C@]2(C)C(=O)CC[C@@H]12	–	–
187.1 to 189.6 °C	C[C@]12CCC3=C(C(=O)c4occ5c4[C@]3(C)CC[C@@H]5O)[C@@H]1CC[C@@H]2O	–	–
–	C[C@@]12c3ccc4c(c3C(=O)c3occ(c31)C(=O)C[C@H]2O)CCC4=O [Compound 1, demethoxyviridin]	6.6 nM	cytotoxicity against MCF-7 (in words) [1]: moderate cytotoxicity; stability in PBS and culture media (in words) [2]: instability
–	C[C@@]12c3ccc4c(c3C(=O)c3occ(c31)[C@@H](O)C[C@H]2O)CCC4=O [Compound 2, demethoxyviridiol]	1070 nM	IC50 at 48 h ([4]; three replicates, read-out: IC50 value, cytotoxicity against MCF-7 (Supplementary Figure 9b)): 37300 nM
–	C[C@]12CCC(=O)c3coc(c31)C(=O)c1c2ccc2c1CCC2=O [Compound 3, dehydroxydemethoxyviridin]	167 nM	–
–	C[C@]12CCC3=C(C(=O)c4occ5c4[C@]3(C)CCC5=O)[C@@H]1CC[C@@H]2O [Compound 7, (6bR,9S,9aS,11bR)-9-hydroxy-9a,11b-dimethyl-1,2,6b,7,8,9,9a,10,11,11b-decahydrocyclopenta[7,8]phenanthro[10,1-bc]furan-3,6-dione]	42.7 nM	IC50 at 48 h ([4]; read-out: IC50 value, cytotoxicity against MCF-7): 15000 nM
–	CC(=O)O[C@H]1CC[C@H]2C3=C(CC[C@]12C)[C@@]1(C)CC[C@H](O)c2coc(c21)C3=O [Compound 9, (3S,6bR,9S,9aS,11bR)-3-hydroxy-9a,11b-dimethyl-6-oxo-1,2,3,6,6b,7,8,9,9a,10,11,11b-dodecahydrocyclopenta[7,8]phenanthro[10,1-bc]furan-9-yl acetate]	–	inhibitory effect on PI3K (in words) ([3]; 10 μM sample, Fig. 8a): abolishes the activity
–	CC(=O)[C@H]1CC[C@H]2C3=C(CC[C@]12C)[C@@]1(C)CCC(=O)c2coc(c21)C3=O [Compound 10, virone]	2250 nM	–
